Data: publication PMC3160329, “Functional Dissection of the Proton Pumping Modules of Mitochondrial Complex I” (PLoS Biology, 2011)

Target: T1, subcomplex nb8mΔ (Yarrowia lipolytica, UniProt Q9B6E8+Q9UUT7+Q9UUU1+Q9UUU2)
T1 construct: gene nucm; complex I subcomplex lacking 14 subunits of the PD module (incl. ND4, ND5, NB8M); about 680 kDa; C-terminal His tag on NUGM; purified, asolectin proteoliposomes; with NADH-ubiquinone oxidoreductase 75 kDa subunit; NADH-ubiquinone oxidoreductase 30 kDa subunit; NADH-ubiquinone oxidoreductase 24 kDa subunit; NADH-ubiquinone oxidoreductase 23 kDa subunit; NADH-ubiquinone oxidoreductase chain 2; NADH-ubiquinone oxidoreductase chain 3; NADH-ubiquinone oxidoreductase chain 6; NADH-ubiquinone oxidoreductase chain 4L
Assay: NADH:DBQ oxidoreductase activity, NADH oxidation
Format: biochemical
Conditions: 100 µM NADH, 100 µM DBQ, pH 7.2, 30 °C, proteoliposomes

| SMILES | NADH:DBQ oxidoreductase activity, NADH oxidation (electron donor) | NADH:DBQ oxidoreductase activity, NADH oxidation (electron acceptor) |
| --- | --- | --- |
| NC(=O)C1=CN([C@@H]2O[C@H](COP(=O)(O)OP(=O)(O)OC[C@H]3O[C@@H](n4cnc5c(N)ncnc54)[C@H](O)[C@@H]3O)[C@@H](O)[C@H]2O)C=CC1 [NADH] | addition of NADH and the ubiquinone analogue DBQ to subcomplex nb8mΔ proteoliposomes | – |
| CCCCCCCCCCC1=C(C)C(=O)C(OC)=C(OC)C1=O [DBQ, decylubiquinone] | – | addition of NADH and the ubiquinone analogue DBQ to subcomplex nb8mΔ proteoliposomes |
